Measured values reported in patent US20040121316A1 (priority 2002, published 2004).
Read-outs that look alike come from different tables or passages of the source.

Key:
HIV-1 84V90M = test: microbe, parasite or virus in culture; assay type: cell-based
WT HIV-1 [1] = test: microbe, parasite or virus in culture; assay type: cell-based
HIV-1 30N82I88D = test: microbe, parasite or virus in culture; assay type: cell-based; conditions: Human immunodeficiency virus 1, read-out: Cell-based assay (MT-4) EC50/nM 30N82I88D
84V90M HIV protease = 84V90M HIV protease (Human immunodeficiency virus type 1 group M subtype B, UniProt P04585, I572V/L578M); test: biochemical; design: species or system HIV-1
[2] = system: recombinant HIV-1 10I 48V 71V 82A 90M; test: microbe, parasite or virus in culture; assay type: cell-based; conditions: read-out: Cell-based assay (MT-4) EC50/nM 48V 82A 90M; MT-4 cells, strain printed as 48V 82A 90M
[3] = system: recombinant HIV-1 48V 54V 71V 82S; test: microbe, parasite or virus in culture; assay type: cell-based; conditions: MT-4 cells, strain printed as 48V 54V 82S; read-out: Cell-based assay (MT-4) EC50/nM 48V 54V 82S
WT HIV-1 [4] = test: microbe, parasite or virus in culture; assay type: cell-based; remark: listed apart in the source
[5] = system: recombinant HIV-1 30N 50S 82I 88D; test: microbe, parasite or virus in culture; assay type: cell-based
[6] = system: recombinant HIV-1 10I 48V 54V 82A; test: microbe, parasite or virus in culture; assay type: cell-based
[7] = system: recombinant HIV-1 46I 47V 50V; test: microbe, parasite or virus in culture; assay type: cell-based; conditions: MT-4 cells, strain printed as 47I50V; read-out: Cell-based assay (MT-4) EC50/nM 47I 50V
HIV-1 48V54V82A = test: microbe, parasite or virus in culture; assay type: cell-based
[8] = system: recombinant HIV-1 10I 84V 71V 73S 90M; test: microbe, parasite or virus in culture; assay type: cell-based; conditions: Human immunodeficiency virus 1, MT4, read-out: Cell-based assay (MT-4) EC50/nM 84V 90M
[9] = system: recombinant HIV-1 strains with resistance mutations in the protease gene; test: Cross-Resistance Profile Assay, whole panel; assay type: cell-based; conditions: {}
[10] = system: wild-type HIV-1 strain IIIB; test: microbe, parasite or virus in culture; assay type: cell-based; design: scale not given here
HIV-1 46I50V = test: microbe, parasite or virus in culture; assay type: cell-based
mutant HIV-1 I84V/L90M = test: Resistance Evaluation, I84V/L90M fold change; assay type: cell-based; design: scale not given here
[11] = biological target: T1, recombinant HIV-1 protease (Human immunodeficiency virus type 1 group M subtype B, UniProt P04585); test: biochemical
T1 construct: Enzyme: recombinant HIV-1 protease expressed in E.Coli; purchased Bachem California, Inc. H-9040; host or cells: E. coli

[12] = Human immunodeficiency virus 1, read-out: Cell-based assay (MT-4) EC50/nM 84V90M
[13] = Human immunodeficiency virus 1, read-out: Cell-based assay (MT-4) EC50/nM WT
[14] = Human immunodeficiency virus 1, read-out: Cell-based assay (MT-4) EC50/nM 48V54V82A
[15] = Human immunodeficiency virus 1, IIIB
[16] = Human immunodeficiency virus 1, read-out: Cell-based assay (MT-4) EC50/nM 46I50V
[17] = read-out: Cell-based assay (MT-4) EC50/nM WT
[18] = EC50 of mutant I84V/L90M relative to wild type, class symbols

## O=C(O)c1cccc(CN2C(=O)N(Cc3ccc(O)cc3)C(Cc3ccccc3)C(O)C(O)C2Cc2ccccc2)c1 (centres unmarked)
HIV-1 84V90M; [12]
  EC50: > 6000 nM
WT HIV-1 [1]; [13]
  EC50: 3060 nM
HIV-1 30N82I88D
  EC50: 887 nM
84V90M HIV protease
  IC50: 174 nM

## Nc1n[nH]c2ccc(CN3C(=O)N(Cc4cccc(C(=O)O)c4)C(Cc4ccccc4)C(O)C(O)C3Cc3ccccc3)cc12 (centres unmarked)
HIV-1 84V90M; [12]
  EC50: > 6000 nM
HIV-1 30N82I88D
  EC50: > 6000 nM
84V90M HIV protease
  IC50: 27 nM

## CCOP(=O)(COc1ccc(CC2C(O)C(O)C(Cc3ccccc3)N(Cc3ccccc3)C(=O)N2Cc2ccccc2)cc1)OCC (centres unmarked)
[2]
  EC50: 3290 nM
[3]
  EC50: 1900 nM
WT HIV-1 [4]; MT-4 cells, WT, read-out: Cell-based assay (MT-4) EC50/nM WT
  EC50: 107 nM
[5]; MT-4 cells, strain printed as 30N 82I 88D, read-out: Cell-based assay (MT-4) EC50/nM 30N 82I 88D
  EC50: 293 nM
[6]; MT-4 cells, strain printed as 48V 54V 82A, read-out: Cell-based assay (MT-4) EC50/nM 48V 54V 82A
  EC50: 1440 nM
[7]
  EC50: 589 nM

## Nc1n[nH]c2ccc(CN3C(=O)N(CCCCOCP(=O)(O)O)C(Cc4ccccc4)C(O)C(O)C3Cc3ccccc3)cc12 (centres unmarked) [CH2 OCH2PO3H2]
HIV-1 84V90M; [12]
  EC50: > 4240 nM
WT HIV-1 [1]; [13]
  EC50: 1760 nM
84V90M HIV protease
  IC50: 205 nM

## CCOP(=O)(COCCCCN1C(=O)N(Cc2ccc3[nH]nc(N)c3c2)C(Cc2ccccc2)C(O)C(O)C1Cc1ccccc1)OCC (centres unmarked) [CH2OCH2PO3Et2]
HIV-1 84V90M; [12]
  EC50: 3300 nM
WT HIV-1 [1]; [13]
  EC50: 119 nM
HIV-1 48V54V82A; [14]
  EC50: 430 nM
HIV-1 30N82I88D
  EC50: 267 nM
84V90M HIV protease
  IC50: 123 nM

## O=C1N(Cc2ccccc2)C(Cc2ccccc2)C(O)C(O)C(Cc2ccc(O)cc2)N1Cc1ccccc1 (centres unmarked) [H/Ph/OH]
[8]
  EC50: > 6000 nM
WT HIV-1 [4]; Human immunodeficiency virus 1, MT4, read-out: Cell-based assay (MT-4) EC50/nM WT
  EC50: 1260 nM
[5]; Human immunodeficiency virus 1, MT4, read-out: Cell-based assay (MT-4) EC50/nM 30N 82I 88D
  EC50: 2950 nM
[6]; Human immunodeficiency virus 1, MT4, read-out: Cell-based assay (MT-4) EC50/nM 48V 54V 82A
  EC50: > 6000 nM

## CC(C)(C)NC(=O)[C@@H]1CN(Cc2cccnc2)CCN1C[C@@H](O)C[C@@H](Cc1ccccc1)C(=O)N[C@H]1c2ccccc2C[C@H]1O [Indinavir, reference compound]
[9]
  Total No. of Resistant Viruses: 8
[10]; [15]
  EC50: < 50 nM

## CCOP(=O)(COCCCN1C(=O)N(Cc2ccc3[nH]nc(N)c3c2)C(Cc2ccccc2)C(O)C(O)C1Cc1ccccc1)OCC (centres unmarked) [OCH2PO3Et2]
HIV-1 84V90M; [12]
  EC50: > 6000 nM
WT HIV-1 [1]; [13]
  EC50: 356 nM
HIV-1 48V54V82A; [14]
  EC50: 175 nM
HIV-1 30N82I88D
  EC50: 145 nM
84V90M HIV protease
  IC50: 157 nM
HIV-1 46I50V; [16]
  EC50: 138 nM

## Nc1n[nH]c2ccc(CN3C(=O)N(CCCOCP(=O)(O)O)C(Cc4ccccc4)C(O)C(O)C3Cc3ccccc3)cc12 (centres unmarked) [OCH2PO3H2]
HIV-1 84V90M; MT-4, 84V90M, read-out: Cell-based assay (MT-4) EC50/nM 84V90M
  EC50: > 6000 nM
WT HIV-1 [1]; [17]
  EC50: 1070 nM

## CCOP(=O)(COc1ccc(CC2C(O)C(O)C(Cc3ccc(O)cc3)N(Cc3ccc(O)cc3)C(=O)N2Cc2ccc(O)cc2)cc1)OCC (centres unmarked) [OH, Ph-pOH, OCH2PO3Et2]
HIV-1 84V90M; [12]
  EC50: 1910 nM
WT HIV-1 [1]; [13]
  EC50: 285 nM
HIV-1 48V54V82A; [14]
  EC50: 986 nM
HIV-1 30N82I88D
  EC50: 211 nM
84V90M HIV protease
  IC50: 18 nM
HIV-1 46I50V; [16]
  EC50: 1110 nM

## CCOP(=O)(COc1ccc(CC(NC(=O)OC2CCOC2)C(O)CN(CC(C)C)S(=O)(=O)c2ccc(OC)cc2)cc1)OCC (centres unmarked) [OMe, OEt]
[10]
  EC50 (nM): + + +
Mutant HIV-1 I84V/L90M; mutant I84V/L90M vs wild type
  I84V/L90M fold change: + + and + + +
[11]
  Ki (pM): + + and + + +

## COc1ccc(S(=O)(=O)N(CC(C)C)C[C@@H](O)[C@H](Cc2ccc(OCP(=O)(Oc3ccccc3)Oc3ccccc3)cc2)NC(=O)OC2CCOC2)cc1 (some centres unmarked) [OMe, phenol]
[10]
  EC50 (nM): + + +
Mutant HIV-1 I84V/L90M; mutant I84V/L90M vs wild type
  I84V/L90M fold change: + (>3 to ≦10)
[11]
  Ki (pM): + + +

## CC(C)c1nc(CN(C)C(=O)N[C@H](C(=O)N[C@@H](Cc2ccccc2)C[C@H](O)[C@H](Cc2ccccc2)NC(=O)OCc2cncs2)C(C)C)cs1 [Ritonavir, reference compound]
[9]
  Total No. of Resistant Viruses: 10
[10]; [15]
  EC50: < 50 nM

## CC(C)(C)NC(=O)[C@@H]1C[C@@H]2CCCC[C@@H]2CN1C[C@@H](O)[C@H](Cc1ccccc1)NC(=O)[C@H](CC(N)=O)NC(=O)c1ccc2ccccc2n1 [Saquinavir, reference compound]
[9]
  Total No. of Resistant Viruses: 4
[10]; [15]
  EC50: < 50 nM

## CCCCOC(=O)CNP(=O)(COc1ccc(CC(NC(=O)OC2COC3OCCC23)C(O)CN(CC(C)C)S(=O)(=O)c2ccc(OC)cc2)cc1)Oc1ccccc1 (centres unmarked) [drawing 614 R1=OPh R2=Gly-Bu]
[10]; [15]
  EC50: 50 to 500 nM
Mutant HIV-1 I84V/L90M; [18]
  I84V/L90M fold change: − (≦3)
[11]; Ki, class symbols, Table 10
  Ki: 0.01 to 0.1 nM

## CCOC(=O)COP(=O)(COc1ccc(CC(NC(=O)OC2COC3OCCC23)C(O)CN(CC(C)C)S(=O)(=O)c2ccc(OC)cc2)cc1)Oc1ccccc1 (centres unmarked) [drawing 615 R1=OPh R2=Glc-Et]
[10]; [15]
  EC50: 50 to 500 nM
Mutant HIV-1 I84V/L90M; [18]
  I84V/L90M fold change: − (≦3)
[11]; Ki, class symbols, Table 10
  Ki: < 0.01 nM

## COc1ccc(S(=O)(=O)N(CC(C)C)CC(O)C(CC2=CCN(CCP(=O)(OCc3ccccc3)OCc3ccccc3)CC2)NC(=O)OC2COC3OCCC23)cc1 (centres unmarked) [drawing 673]
[10]
  EC50 (nM): + +
Mutant HIV-1 I84V/L90M; mutant I84V/L90M vs wild type
  I84V/L90M fold change: − (≦3)
[11]; read-out: Ki
  Ki: > 1 nM

## CC(C)CN(CC(O)C(Cc1ccc(OCP(=O)(NC(C)C(=O)OC(C)C)Oc2ccccc2)cc1)NC(=O)OC1CCOC1)S(=O)(=O)c1ccc(N)cc1 (centres unmarked) [drawing 697 R1=OPh R2=Ala-iPr]
[10]; class symbols, Table 10
  EC50: + +
Mutant HIV-1 I84V/L90M; [18]
  I84V/L90M fold change: + (>3 to ≦10)
[11]; Ki, class symbols, Table 10
  Ki: 0.1 to 1 nM
[11]; class symbols, Table 10
  Ki: + +

## CCOP(=O)(CCCNC(=O)c1cccc(CN2C(=O)N(Cc3ccc4[nH]nc(N)c4c3)C(Cc3ccccc3)C(O)C(O)C2Cc2ccccc2)c1)OCC (centres unmarked) [drawing 809]
HIV-1 84V90M; [12]
  EC50: 476 nM
WT HIV-1 [1]; [13]
  EC50: 188 nM
HIV-1 48V54V82A; [14]
  EC50: 240 nM
HIV-1 30N82I88D
  EC50: 666 nM
84V90M HIV protease
  IC50: 10 nM
HIV-1 46I50V; [16]
  EC50: 319 nM

## CCOP(=O)(CCCNC(=O)c1cccc(CN2C(=O)N(Cc3ccc4[nH]nc(N)c4c3)C(Cc3ccccc3)C(O)C(O)C2Cc2ccccc2)c1)OCC (centres unmarked) [drawing 820]
84V90M HIV protease; read-out: 84V90M IC50/nM, Enzymatic assay, 84V90M
  IC50: 10 nM

## Nc1n[nH]c2ccc(CN3C(=O)N(Cc4cccc(OCc5ccccc5)c4)C(Cc4ccccc4)C(O)C(O)C3Cc3ccccc3)cc12 (centres unmarked) [m-OBn]
WT HIV-1 [1]; [17]
  EC50: 218 nM
HIV-1 48V54V82A; MT-4, 48V54V82A, read-out: Cell-based assay (MT-4) EC50/nM 48V54V82A
  EC50: 709 nM
HIV-1 46I50V; MT-4, 46I50V, read-out: Cell-based assay (MT-4) EC50/nM 46I50V
  EC50: 601 nM

## O=C1N(Cc2ccccc2)[C@H](Cc2ccccc2)[C@H](O)[C@@H](O)[C@@H](Cc2ccccc2)N1Cc1ccc2[nH]ncc2c1 [reference compound]
HIV-1 84V90M; [12]
  EC50: 2310 nM
WT HIV-1 [1]; [13]
  EC50: 193 nM
HIV-1 48V54V82A; [14]
  EC50: 705 nM
HIV-1 30N82I88D
  EC50: 281 nM
84V90M HIV protease
  IC50: 43.3 nM
HIV-1 46I50V; [16]
  EC50: 772 nM
